These results are taken from ChEMBL document CHEMBL1201862, “PubChem BioAssay data set” (2004).

What is called EC50 is the concentration needed to bring the measured effect to its halfway point. For orientation: AC50 means the concentration at which the activity in the assay is half-maximal.

For one test, the target named is Prothrombin (Bos taurus, UniProt P00735). In words: thrombin protease inhibitors – biochemical, fluorescence polarization, uHTS hits, dose response (AID 602369). The test is classed as functional. A general note: In fluorescence polarisation assays a small probe gives low polarisation when free and higher when bound to something large.
In test [1] the target is 72 kDa type IV collagenase (Homo sapiens, UniProt P08253). In words: Dose Response validation of uHTS RPN11 inhibitor hits using a MMP-2 Fluorescence assay. The test is classed as functional.
72 kDa type IV collagenase, sequence (P08253 whole entry): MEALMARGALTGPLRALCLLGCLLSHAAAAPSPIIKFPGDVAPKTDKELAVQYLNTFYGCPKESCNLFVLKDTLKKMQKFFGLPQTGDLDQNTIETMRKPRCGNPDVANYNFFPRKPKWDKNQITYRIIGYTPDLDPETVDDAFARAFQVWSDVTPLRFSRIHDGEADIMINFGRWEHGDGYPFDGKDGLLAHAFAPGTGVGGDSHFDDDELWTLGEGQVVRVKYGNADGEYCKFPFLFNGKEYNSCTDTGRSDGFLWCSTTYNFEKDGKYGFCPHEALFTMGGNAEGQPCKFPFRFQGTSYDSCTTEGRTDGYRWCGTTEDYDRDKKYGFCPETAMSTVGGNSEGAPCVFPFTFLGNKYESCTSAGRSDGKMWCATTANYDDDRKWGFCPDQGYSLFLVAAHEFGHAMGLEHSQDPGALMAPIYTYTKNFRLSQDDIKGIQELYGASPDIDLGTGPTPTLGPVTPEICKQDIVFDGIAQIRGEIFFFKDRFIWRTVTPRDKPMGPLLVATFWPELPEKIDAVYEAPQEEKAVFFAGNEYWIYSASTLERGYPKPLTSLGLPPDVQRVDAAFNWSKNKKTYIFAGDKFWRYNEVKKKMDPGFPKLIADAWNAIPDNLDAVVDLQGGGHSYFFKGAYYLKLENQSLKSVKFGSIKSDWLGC
Test [2] deals with Induced myeloid leukemia cell differentiation protein Mcl-1 (Homo sapiens, UniProt Q07820). The test is classed as functional.
Induced myeloid leukemia cell differentiation protein Mcl-1, sequence (Q07820 whole entry): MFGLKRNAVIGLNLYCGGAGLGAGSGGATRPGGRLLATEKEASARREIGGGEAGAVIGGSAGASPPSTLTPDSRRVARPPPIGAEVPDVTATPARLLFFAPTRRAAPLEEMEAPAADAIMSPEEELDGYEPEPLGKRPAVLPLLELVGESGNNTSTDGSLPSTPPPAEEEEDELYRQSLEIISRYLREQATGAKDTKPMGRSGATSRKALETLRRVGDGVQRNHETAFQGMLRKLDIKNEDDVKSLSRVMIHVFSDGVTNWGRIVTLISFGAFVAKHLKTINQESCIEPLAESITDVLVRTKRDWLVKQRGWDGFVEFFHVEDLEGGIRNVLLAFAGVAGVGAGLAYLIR
Test [3] deals with 26S proteasome non-ATPase regulatory subunit 14 (Homo sapiens, UniProt O00487). In words: inhibition of proteasome subunit RPN11 – biochemical, fluorescence polarization, uHTS hits, confirmation (AID 602368). The test is classed as functional.
26S proteasome non-ATPase regulatory subunit 14, sequence (O00487 whole entry): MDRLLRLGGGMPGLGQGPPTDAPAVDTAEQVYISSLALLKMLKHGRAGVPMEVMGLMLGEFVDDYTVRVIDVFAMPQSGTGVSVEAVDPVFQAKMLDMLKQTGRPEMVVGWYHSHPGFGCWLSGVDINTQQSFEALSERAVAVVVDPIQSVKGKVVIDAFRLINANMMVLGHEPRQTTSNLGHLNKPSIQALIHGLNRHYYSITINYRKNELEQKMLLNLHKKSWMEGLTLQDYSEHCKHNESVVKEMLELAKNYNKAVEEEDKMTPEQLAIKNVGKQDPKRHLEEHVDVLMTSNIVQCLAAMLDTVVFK
Test [4] deals with Melanin-concentrating hormone receptor 1 (Homo sapiens, UniProt Q99705). In words: Late-stage fluorescence-based counterscreen for antagonists of the G-protein coupled receptor 7 (GPR7): cell-based dose response assay to identify antagonists of the melanin-concentrating hormone receptor 1 (MCHR1) Set 5. The test is classed as functional. (In general: The purpose of a counterscreen is to sort out artefacts and off-target activity.)
Melanin-concentrating hormone receptor 1, sequence (Q99705 whole entry): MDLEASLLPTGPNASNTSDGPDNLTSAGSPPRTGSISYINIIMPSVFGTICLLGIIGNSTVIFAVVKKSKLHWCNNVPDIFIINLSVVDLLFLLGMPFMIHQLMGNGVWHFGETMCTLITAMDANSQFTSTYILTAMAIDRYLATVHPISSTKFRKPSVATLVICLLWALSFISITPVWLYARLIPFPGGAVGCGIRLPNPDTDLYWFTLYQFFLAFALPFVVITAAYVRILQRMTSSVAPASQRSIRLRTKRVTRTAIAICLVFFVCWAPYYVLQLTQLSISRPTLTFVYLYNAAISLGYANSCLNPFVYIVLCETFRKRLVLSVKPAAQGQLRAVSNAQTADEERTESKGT

Test [5] has as its target T1, Neuropeptides B/W receptor type 1 (Homo sapiens, UniProt P48145).
T1 sequence (P48145 whole entry): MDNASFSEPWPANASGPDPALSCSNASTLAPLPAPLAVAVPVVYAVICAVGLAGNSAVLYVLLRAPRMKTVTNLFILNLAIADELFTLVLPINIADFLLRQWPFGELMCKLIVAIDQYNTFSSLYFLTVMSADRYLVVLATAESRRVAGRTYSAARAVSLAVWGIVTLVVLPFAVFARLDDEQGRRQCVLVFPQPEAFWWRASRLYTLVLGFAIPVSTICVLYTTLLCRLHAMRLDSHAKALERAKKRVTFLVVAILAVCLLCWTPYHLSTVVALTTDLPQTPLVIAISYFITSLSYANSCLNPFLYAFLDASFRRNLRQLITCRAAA
In words: human NPBW1 receptor blockade, IC50 – cell-based, fluorescence, dose response, set 5, late-stage follow-up (AID 588566). The test is classed as functional.

Test [6] can be described thus: DRD fibroblast viability loss – cell-based, non-viral oncogenic, luminescence, dose response (AID 1934). The test is classed as functional. As to conditions: Homo sapiens.
The test system of test [7] is BJ. In words: growth inhibition of engineered Ras-driven BJ cells – cell-based, alamar blue fluorescence, cherrypicked samples, dose response (AID 2631).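 Further: confirmatory dose-response assay in RAS-dependent BJ fibroblasts engineered with TERT, LT and ST, with cytotoxicity read by fluorescence.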 The test is classed as functional. The conditions noted are these: Homo sapiens.
For a further test, the system named is INS1. In words: INS-1E survival protection against cytokine death – cell-based, luminescence, retest, dose response (AID 449756).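 Further: cell death triggered by IL-1 beta plus TNF-alpha plus IFN-gamma mixture; protective hits raise ATP signal compared with cytokine alone wells.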 The test is classed as functional. As to conditions: Rattus norvegicus.
A short description of test [8]: Fluorescence-based cell-based high throughput dose response assay for inhibitors of the interaction of nucleotide-binding oligomerization domain containing 2 (NOD2) and the receptor-interacting serine-threonine kinase 2 (RIPK2). The test is classed as functional. As to conditions: Homo sapiens.
In test [9] the test system is BJ. In words: BJ-TERT fibroblast viability loss – cell-based, RAS-independent, luminescence, dose response (AID 1933). The test is classed as functional. The conditions noted are these: Homo sapiens.
The subject of test [10] is BJ. In words: cells. The test is classed as functional, cell-based. The conditions noted are these: Homo sapiens.
Test [11] deals with BJ. In words: BJ-TERT-LT-ST fibroblast viability loss – cell-based, RAS-independent, luminescence, dose response (AID 1935).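 Further: BJ fibroblasts immortalized with TERT plus LT and ST oncogenes.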 The conditions noted are these: Homo sapiens. The test is classed as functional.
Test [12] can be described thus: microbe, parasite or virus in culture. The conditions noted are these: Mycobacterium tuberculosis. The test is classed as functional.
The target of test [13] is Luciferin 4-monooxygenase (Photinus pyralis, UniProt P08659). In words: inhibition of purified Photinus pyralis luciferase – biochemical, luminescence, dose response (AID 1891).
Luciferin 4-monooxygenase, sequence (P08659 whole entry): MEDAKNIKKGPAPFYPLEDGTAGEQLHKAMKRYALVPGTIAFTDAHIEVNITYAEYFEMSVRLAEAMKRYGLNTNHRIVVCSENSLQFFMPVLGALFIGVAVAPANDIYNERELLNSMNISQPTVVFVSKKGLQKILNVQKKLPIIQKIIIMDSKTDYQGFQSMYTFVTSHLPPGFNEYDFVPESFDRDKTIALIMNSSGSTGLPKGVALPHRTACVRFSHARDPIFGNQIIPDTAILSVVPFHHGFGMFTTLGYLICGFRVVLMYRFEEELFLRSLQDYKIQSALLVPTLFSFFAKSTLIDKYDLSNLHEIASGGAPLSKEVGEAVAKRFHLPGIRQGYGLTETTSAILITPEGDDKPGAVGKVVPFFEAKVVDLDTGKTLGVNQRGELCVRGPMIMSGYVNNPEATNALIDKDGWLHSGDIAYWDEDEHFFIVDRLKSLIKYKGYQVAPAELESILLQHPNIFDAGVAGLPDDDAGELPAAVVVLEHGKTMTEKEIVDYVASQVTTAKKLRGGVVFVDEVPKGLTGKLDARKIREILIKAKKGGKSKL
A short description of test [14]: Luminescence Cell-Based Dose Confirmation HTS to Identify Inhibitors of Platelet Dense Granule Release. [Related pubchem assays: 1663 (Primary HTS), 1678 (Summary of Project)]. The test is classed as functional.
The nature of test [15]: viability of uninfected HEp-2 cells – cell-based, HTS, cytotoxicity control for RSV inhibitor project, dose response (AID 2410). The conditions noted are these: human respiratory syncytial virus. The test is classed as functional.
The target of test [16] is Low molecular weight phosphotyrosine protein phosphatase (Homo sapiens, UniProt P24666). The test is classed as functional. The conditions noted are these: read-out: IC50_Mean.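 Further: Dose-response confirmation assay measuring inhibition of LMPTP enzyme activity by fluorescence intensity read-out.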
Low molecular weight phosphotyrosine protein phosphatase, sequence (P24666 whole entry): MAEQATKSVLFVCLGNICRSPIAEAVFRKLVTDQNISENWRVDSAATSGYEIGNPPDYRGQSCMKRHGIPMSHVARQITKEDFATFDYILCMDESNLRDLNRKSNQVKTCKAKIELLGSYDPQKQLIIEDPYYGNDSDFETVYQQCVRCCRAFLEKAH

The source made the active and inactive calls.

As to `COc1ccc(/C=C2\C(=O)NC(=S)N2C(=O)c2ccc(C)cc2)cc1`, the IC50 is 40.2 µM (active) at Prothrombin, 20 µM (active) in test [1], 1.53 µM (not active) in test [2] and 18.8 µM (active) in test [3].
As for `COc1cc(OC)cc(Oc2c(Cl)cnn(Cc3cccc4ccccc34)c2=O)c1`, the IC50 was > 20 µM (inactive) in test [4] and 10.1 µM (inactive) in test [5].
For the molecule `O=C(/C=C/c1cccs1)Nc1cccc(NC(=O)/C=C/c2cccs2)n1`, the IC50 is 45.6 µM (active) on Prothrombin, > 100 µM (inactive) in test [1] and 48.3 µM (active) in test [3].
For the molecule `CCOc1cc(/C=C2\COc3ccccc3C2=O)cc(Br)c1OCC(=O)N(C)C`, the concentration giving a half-maximal response (EC50) in test [6] was 5.72 µM (active); with BJ [7], 2.12 µM (active); with BJ [9], 5.54 µM (inconclusive); in the test on BJ [10] it was 8.64 µM (active); in the test with BJ [11], 16.4 µM (active). The AC50 in the test on INS1 is 7.22 µM (active). Besides, the IC50 in [8] was 6.43 µM (active). For the same molecule, the CC50 in test [12] was 15.2 µM (active).
As for `Cc1cccc2nc(-c3ccccc3)nc(N[C@@H](CO)c3ccccc3)c12`, the half-maximal effective concentration (EC50) in test [13] and in test [14] was > 112 µM (not active) throughout. In test [15], the CC50 is 19 µM (active). For the same molecule, the IC50 in test [16] is 17 µM (active).
